Measurements taken from patent US20160067209A1, “PTEROCARPAN COMPOUND OR PHARMACEUTICALLY ACCEPTABLE SALT THEREOF AND PHARMACEUTICAL COMPOSITION FOR PREVENTION OR TREATMENT OF METABOLIC DISEASE OR COMPLICATION THEREOF, OR FOR ANTIOXIDANT CONTAINING THE SAME AS AN ACTIVE INGREDIENT” (KOREA RESEARCH INSTITUTE OF BIOSCIENCE AND BIOTECHNOLOGY, priority 2010, published 2016).
pIC50: −log10 of the molar value.

How the values were obtained:
[1] = molecular target: T1, hACAT-1 (Homo sapiens, UniProt P35610); experiment: hACAT inhibitory activity, microsome fraction of Hi5 cells, [1-14C] oleoyl-CoA substrate; assay type: biochemical; conditions: for inhibition at 100 µM: read-out: Inhibitory activity at 100 μM (%) hACAT1
T1 construct: made in house; host or cells: Hi5 insect cells (baculovirus; virus produced in sf9), microsome fraction
T1 sequence (P35610 1-550): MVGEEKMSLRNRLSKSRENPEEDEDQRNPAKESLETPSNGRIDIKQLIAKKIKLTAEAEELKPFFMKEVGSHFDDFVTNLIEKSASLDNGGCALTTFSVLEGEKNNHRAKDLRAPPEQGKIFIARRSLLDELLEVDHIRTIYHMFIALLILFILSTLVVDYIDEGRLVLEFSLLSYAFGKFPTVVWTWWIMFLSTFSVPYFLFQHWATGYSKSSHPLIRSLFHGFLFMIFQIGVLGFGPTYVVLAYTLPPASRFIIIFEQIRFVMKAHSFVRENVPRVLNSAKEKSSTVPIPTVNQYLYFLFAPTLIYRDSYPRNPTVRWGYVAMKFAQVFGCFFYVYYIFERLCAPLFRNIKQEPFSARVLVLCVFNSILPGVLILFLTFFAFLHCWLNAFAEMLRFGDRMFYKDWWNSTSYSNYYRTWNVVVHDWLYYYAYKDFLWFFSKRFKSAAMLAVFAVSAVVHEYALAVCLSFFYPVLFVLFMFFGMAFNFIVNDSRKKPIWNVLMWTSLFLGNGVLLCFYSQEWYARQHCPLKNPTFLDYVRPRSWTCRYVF
Description: (§1) cDNA of each hACAT-1 and hACAT-2 obtained by human liver cDNA library screening was inserted into baculovirus vector, which was then introduced into the insect cell sf9 to produce target virus. The recombinant virus of each hACAT-1 and hACAT-2 was separated by plaque purification and then amplified three times to increase titer of viral stock.
(§2) To separate microsome fractions from the cultured Hi5 cells over-expressing hACAT-1 and hACAT-2, centrifugation was performed at 500 rpm for 15 minutes. The collected cells were lysed by quick-freezing/quick-thawing in hypotonic buffer, followed by ultracentrifugation at 100,000 rpm for one hour. The obtained microsome fractions were suspended in hypotonic buffer to make the protein concentration to be 8 mg/ml, which was stored in −70° C. freezer until use.
(§3) Human ACAT (hACAT) activity was measured by the method of Brecher & Chan (P. Brecher and C. Chan, Biochem. Biophys. Acta, 1980, 617: 458) with slight modification using [1-^14C] oleoyl-CoA (56.0 ρCi/μmol; Amersham) as a substrate. 10 μl of each of the pterocarpan compounds represented by Formula 2-Formula 5 obtained in Example 1 in dimethylsulfoxide (DMSO) was mixed with 4.0 μl of the microsome solution obtained in step 1, 20.0 μl a of assay buffer (0.5 M KH2PO4, 10 mM DTT, pH 7.4; Sigma), 15.0 μl of bovine serum albumin (BSA, stock solution conc. 40 mg/ml; Sigma), 2.0 μl of cholesterol (stock solution conc. 20 mg/ml; Sigma), and 41.0 μl of distilled water, followed by pre-reaction at 37° C. for 15 minutes. In this assay, the negative control was used the DMSO alone, and the positive control was used a known ACAT inhibitor, oleic acid anilide.
(§4) Eight (8) μl of [1-^14C] oleoyl-CoA (0.05 μCi, final conc. 10.0 μM) was added to the above reaction mixture, followed by reaction at 37° C. for 30 minutes. The reaction was terminated by adding 1 ml of isopropanol:heptane mixed solution (4:1(v/v)). Six hundred (600) μl of heptane and 200 μl of 0.1 M KH2PO4 (pH 7.4) were added thereto and the reaction mixture was vortexed vigorously and centrifuged at 300 rpm for 5 minutes. The obtained upper phase (100 μl) was added in a scintillation vial, to which 4 ml of scintillation solution (Lipoluma, Lumac Co.) were added. Radioactivity of the upper phase was measured by 1450 Microbeta liquid scintillation counter (Wallacoy).
(§5) hACAT activity was calculated based on the radioactivity, the amount of synthesized cholesteryl oleated, measured above and expressed as a defined unit, pico mole per 1 mg of protein for 1 minute (pico mole/minute/mg protein).

[2] = molecular target: T2, hACAT-2 (Homo sapiens, UniProt O75908); experiment: as above; assay type: biochemical; conditions: read-out: Inhibitory activity at 100 μM (%) hACAT2
T2 construct: made in house; host or cells: Hi5 insect cells (baculovirus; virus produced in sf9), microsome fraction
T2 sequence (O75908 1-522): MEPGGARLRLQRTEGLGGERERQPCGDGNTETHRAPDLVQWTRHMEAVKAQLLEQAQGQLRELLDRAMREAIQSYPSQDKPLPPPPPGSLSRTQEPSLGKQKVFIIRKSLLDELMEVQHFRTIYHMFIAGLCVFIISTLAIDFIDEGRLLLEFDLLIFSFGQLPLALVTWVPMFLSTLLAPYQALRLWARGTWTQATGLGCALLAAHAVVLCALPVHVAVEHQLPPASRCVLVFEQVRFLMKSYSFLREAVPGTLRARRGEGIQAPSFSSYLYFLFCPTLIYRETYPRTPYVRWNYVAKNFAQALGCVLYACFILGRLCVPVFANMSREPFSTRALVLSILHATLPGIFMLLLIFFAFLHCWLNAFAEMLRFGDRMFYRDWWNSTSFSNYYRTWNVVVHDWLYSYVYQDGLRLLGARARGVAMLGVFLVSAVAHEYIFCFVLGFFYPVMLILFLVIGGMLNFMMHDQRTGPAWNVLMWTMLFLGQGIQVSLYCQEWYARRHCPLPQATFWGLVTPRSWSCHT
Description: as §1, §2, §3, §4, §5

[3] = system: LDL; experiment: LDL anti-oxidative activity, Cu-mediated LDL-oxidation, TBA method; assay type: biochemical, human; conditions: CuSO4, 37° C., 4 hours, MDA by TBA; read-out: LDL-oxidation inhibitory activity (IC50)
Description: Cu^2+ has been known to induce LDL-oxidation (Cu-mediated LDL-oxidation). In this invention, dialdehyde, the oxide of unsaturated fatty acid, generated during LDL-oxidation was measured by TBA (thiobarbituric acid) method to investigate the anti-oxidative activity of the pterocarpan compound isolated from soybean leaves (Packer, L. Ed. (1994) Methods in Enzymology Vol. 234, Oxygen radicals in biological systems Part D. Academic press, San Diego).
Three hundred (300) ml of human plasma were centrifuged at 100,000×g for 24 hours to remove floating VLDL/chylomicron layer in upper part. The specific gravity of the remaining solution was adjusted to […], followed by re-centrifugation at 100,000×g for 24 hours, and 25 ml of the floating LDL (1.5-2.5 mg protein/ml) in upper layer was separated.
Twenty (20) μl of the separated LDL (protein conc. 50-100 μg/ml) was mixed with 210 μl of 10 mM PBS, to which 10 μl of each of the pterocarpan compounds represented by Formula 2-Formula 5 of the present invention was added respectively.
The pterocarpan compounds were dissolved in DMSO, which were further diluted properly for the experiment. In this assay, the negative control was used the DMSO only, while the positive control was used a known LDL-antioxidant, probucol.
Ten (10) μl of 0.25 mM CuSO4 was added to the above reaction mixture, followed by reaction at 37° C. for 4 hours. The reaction was terminated by adding 1 ml of 20% trichloroacetic acid (TCA) solution. One (1) ml of 0.67% thiobarbituric acid (TBA) dissolved in 0.05 N NaOH solution was added thereto, followed by stirring for 10 seconds. Then, the reaction mixture was heated at 95° C. for 5 minutes to induce color development. The solution was cooled down with iced water and centrifuged at 3,000 rpm for 5 minutes to separate supernatant. The amount of malondialdehyde (MDA) generated by the color development was calculated by measuring optical density at 540 nm (OD540) with UV-VIS Spectrophotometer.
PBS standard solution containing 0-10 nmol MDA was prepared by […] with tetramethoxypropane malonaldehyde bis (dimethylacetal) stock solution. Color development was induced with the standard solution, followed by measuring OD540. The generated MDA was quantified by using the standard curve in experiments with the pterocarpan compound of the present invention.

COc1cc(O)cc2oc(=O)c3c4ccc(O)cc4oc3c12 [Formula 4, isotrifoliol]
inhibition at 100 µM [1]: 14.9% | inhibition at 100 µM [2]: 7.9% | pIC50 [3]: 5.35

CC(C)=CCc1c(O)ccc2c1oc(=O)c1c3ccc(O)cc3oc21 [Formula 5, phaseol]
Inhibitory activity at 100 μM (%) hACAT1 ([1]; 100 µM): 85.9% | inhibition at 100 µM [1]: 85.8% | inhibition at 100 µM [2]: 67.4% | pIC50 [3]: 6.00

C=C(C)c1cc2cc3c(cc2o1)OC[C@@]1(O)c2ccc(O)cc2O[C@@H]31 [Formula 2, (6aS,11aS)-2-(pro-1-pene-2-yl)-6a,11a-dihydro-6H-benzofuro[3,2-c]furo[3,2-g]chromene-6a,9-diol]
inhibition at 100 µM [1]: 29.7% | inhibition at 100 µM [2]: 22.9% | pIC50 [3]: 4.37

COc1ccc2c(c1)O[C@H]1c3c(cc(O)c(CC=C(C)C)c3OC)OC[C@@]21O [Formula 3]
inhibition at 100 µM [1]: 35.2% | inhibition at 100 µM [2]: 20.3% | pIC50 [3]: 4.29
